Measured values published in article PMC8708495, “Population Pharmacokinetics and Pharmacodynamic Target Attainment of Isavuconazole against Aspergillus fumigatus and Aspergillus flavus in Adult Patients with Invasive Fungal Diseases: Should Therapeutic Drug Monitoring for Isavuconazole Be Considered as Mandatory as for the Other Mold-Active …” (Pharmaceutics, 2021).
Read-outs that look alike come from different tables or passages of the source.

Experiments:
[1] = Therapeutic drug monitoring of isavuconazole Ctrough and Cpeak in hospitalized patients; format: in vivo, human
Procedure: Isavuconazole treatment was started with a loading dose of 200 mg every 8 h for two days, followed by a maintenance dose of 200 mg daily administered orally or intravenously, at the physician’s discretion. Patients underwent TDM of isavuconazole by assessing plasma Ctrough, which was determined approximately five minutes before the scheduled daily dose, and, whenever possible, also plasma Cpeak, which was determined 2 h after oral administration or 0.5 h after a 1 h intravenous infusion. TDM was assessed firstly after at least 72 h from starting therapy and subsequently reassessed at the discretion of the attending physician.
Blood samples for isavuconazole TDM were immediately delivered to the Institute of Clinical Pharmacology, where they were centrifuged to obtain serum. Isavuconazole serum concentrations were estimated by means of a validated liquid chromatography–tandem mass spectrometry analytic method. Precision and accuracy were assessed by replicate analysis of quality control samples against calibration standards. Intra- and interassay coefficients of variation were always <10%. The LOQ was 0.11 mg/L, and the assay was linear in the range of 0.1–10 mg/L.

[2] = Population pharmacokinetic modeling (NPAG, Pmetrics); format: in vivo, human; settings: for clearance / Vd / bioavailability: human, serum, 200 mg daily; for clearance / Vd: other: orally or intravenously; for clearance: read-out: CL, total body clearance (converted); for bioavailability: po, read-out: Fos, oral bioavailability
Procedure: Population pharmacokinetics were conducted using the nonparametric adaptive grid approach (NPAG) and the algebraic model solver included in the Pmetrics package (Version 1.5.0, Laboratory of Applied Pharmacokinetics and Bioinformatics, Los Angeles, CA, USA) of R [22]. One- and two-compartment models with first-order absorption and first-order elimination from the central compartment were developed. Maximum a posteriori (MAP)-Bayesian estimates of isavuconazole clearance (CL) and volume of distribution (V) were determined in each patient.
Influence of covariates was assessed by including the biologically plausible clinical covariates into the basic model. Covariate analysis was conducted by means of the Pmetrics function “PMstep” and by linear regression between the median MAP-Bayesian estimates of isavuconazole pharmacokinetic parameters and each tested covariate.
Model comparison was performed by calculating the objective function value (OFV) and the Akaike information criterion (AIC) value. An improvement between the two competitive models was considered statistically significant when the decrease in the OFV was at least 3.84 points. For both the population predictions and the individual predictions, model fit was assessed by evaluating the coefficient of determination of the linear regression of the observed versus predicted concentration plot. Internal model validation was performed by means of a visual predictive check (VPC) with n = 1000 simulations. The normalized prediction distribution errors (NPDE) were also calculated. The VPC plot compares the observed concentrations with model-predicted concentration-time profiles. A model is reliable when ≥95% of the observed concentrations reside within the 95% CI of the model prediction. Assay laboratory error was estimated by means of the interday variability assay data. A first-order polynomial regression was used between drug concentrations and the standard deviation of the observations (C0 = 0.006, C1 = 0.189). Extra process noise was captured with a gamma (G) model (G = 2).

invasive fungal disease = test: Clinical outcome at end of isavuconazole treatment; format: in vivo, human
Procedure: This was a monocentric, retrospective, observational study conducted among patients who were treated with isavuconazole because of IFD between September 2017 and November 2020 at the Azienda Sanitaria Universitaria Friuli Centrale of Udine, Italy.
(§1) The following demographic and clinical data were retrieved from each patient’s medical record: age, gender, weight, height, type and site of infection and microbiological isolate. Patient comedications, along with serum albumin, total bilirubin, ALT, AST and γ-GT concentrations, were recorded at each TDM assessment. Drug-induced liver injury was defined as mild, moderate, severe or fatal according to the EASL Clinical Practice Guidelines for drug-induced liver injury. Drug cotreatments were accurately reviewed by a clinical pharmacologist with the intent of assessing the eventual influence on isavuconazole clearance by CYP3A4 inhibitors and/or inducers. CYP3A4 inhibitors and/or inducers were classified as strong, moderate and mild according to the FDA [19] and to the DrugBank database. Patient outcome at end of therapy was defined as successful (in case of clinical, radiological and/or mycological resolution or improvement of infection) or failed according to [21].

[3] = Safety and liver enzyme monitoring during isavuconazole therapy; format: in vivo
Procedure: as §1

[4] = Mixed-effect linear regression of clinical variables associated with isavuconazole Ctrough; format: in vivo, human
Procedure: Data were presented as median and interquartile range (IQR) for continuous variables or as count and percentage for categorical variables in the descriptive statistics. Univariate and multivariate linear mixed-effect models (with a random effect to account for correlation among repeated measurements within the same subject) were performed to identify clinical independent predictors of isavuconazole Ctrough. All variables that were associated with a p ≤ 0.20 at univariate analysis were subsequently included in the multivariate model. All statistical and graphical analyses were performed with R version 3.4.4 (R Foundation for Statistical Computing, Vienna, Austria). Data were considered statistically significant when p < 0.05.

[5] = cited from earlier work
[6] = design: method as in PMID 26598096; settings: cited from earlier work
A. fumigatus [7] = test system: A. fumigatus; design: method as in PMID 25753636; settings: EUCAST MIC method; associated with a 90% survival rate against disseminated aspergillosis by wild-type and azole-resistant A. fumigatus; cited from earlier work
A. fumigatus [8] = test system: A. fumigatus; design: method as in earlier work; settings: EUCAST; cited from earlier work
A. flavus = test system: A. flavus; design: method as in earlier work; settings: EUCAST; cited from earlier work
[9] = cited from earlier work; remark: listed apart in the source
[10] = Mean, final population pharmacokinetic model
[11] = Median, final population pharmacokinetic model

## C[C@@H](c1nc(-c2ccc(C#N)cc2)cs1)[C@](O)(Cn1cncn1)c1cc(F)ccc1F [isavuconazole, Isavuconazole]
[1]; 2 of 175 Ctrough
  proportion of measured Ctrough <1.0 mg/L: 1.1%
[1]; 50 of 175 Ctrough
  proportion of measured Ctrough >5.13 mg/L: 28.6%
[1]; median of 24 Cpeak, patients n = 50, dose 200 mg
  Cpeak: 4.67 mg/L
[1]; median of 175 Ctrough, patients n = 50, dose 200 mg
  Ctrough: 3680 ng/mL
[2]; [10]
  Ka, first-order transfer rate constant of absorption: 22.64 h⁻¹
  Vp, volume of distribution of the peripheral compartment: 735.24 L
  clearance: 25.3 mL/min
  bioavailability: 95%
[2]; [11]
  CL, total body clearance: 1.33 L/h
  Ka, first-order transfer rate constant of absorption: 22.64 h⁻¹
  Vp, volume of distribution of the peripheral compartment: 385.93 L
  clearance: 25.3 mL/min
  bioavailability: 100%
[2]; Mean, final population pharmacokinetic model, read-out: V, volume of distribution of the central compartment
  Vd: 89.5 L
[2]; Median, final population pharmacokinetic model, read-out: V, volume of distribution of the central compartment
  Vd: 103 L
[2]; population pharmacokinetic model, read-out: median volume of distribution
  Vd: 489 L
[2]; population pharmacokinetic model
  interindividual variability on CL: 64%
Invasive fungal disease; 3/47
  lack of significant improvement with isavuconazole treatment: 6.4%
Invasive fungal disease; 3/47, progression of underlying oncohematological disease
  Dead for other reasons: 6.4%
Invasive fungal disease; clinical outcome at end of treatment, Table 1 (12/47)
  Treatment failure: 25.5%
Invasive fungal disease; clinical outcome at end of treatment, patients who completed treatment (n = 47)
  Successful treatment: 68.1%
Invasive fungal disease; clinical outcome, text (9/47)
  failure: 19.2%
[3]; 50 patients
  signs and/or symptoms of isavuconazole toxicity during therapy: No patient experienced signs and/or symptoms of isavuconazole toxicity during therapy
[3]; one patient, resolved spontaneously without isavuconazole withdrawal
  ALT in intercurrent mild hepatotoxicity: up to 261 IU/L
[3]; patients on isavuconazole
  alanine-aminotransferase (ALT), median (min–max): 21.0 (3.0–261.0) UI/L
  aspartate-aminotransferase (AST), median (min–max): 20.0 (5.0–249.0) UI/L
  gamma-glutamyltransferase (γ-GT), median (min–max): 70.0 (12.0–642.0) IU/L
[4]; Multivariate Analysis, Cotreatment with CYP3A4 inhibitors
  Unstandardized β-Coefficient (95% CI) for Ctrough: 2.154 (3.248–1.060)
[4]; Multivariate Analysis, Dose/kg daily (mg/kg)
  Unstandardized β-Coefficient (95% CI) for Ctrough: 0.402 (0.819−0.016)
[4]; Multivariate Analysis, γ-GT (IU/L)
  Unstandardized β-Coefficient (95% CI) for Ctrough: −0.0004 (0.002−0.002)
[4]; Univariate Analysis, ALT (IU/L)
  Unstandardized β-Coefficient (95% CI) for Ctrough: −0.001 (0.007−0.009)
[4]; Univariate Analysis, AST (IU/L)
  Unstandardized β-Coefficient (95% CI) for Ctrough: −0.008 (-0.002–0.004)
[4]; Univariate Analysis, Albumin (g/L)
  Unstandardized β-Coefficient (95% CI) for Ctrough: 0.034 (0.087−0.019)
[4]; Univariate Analysis, Cotreatment with CYP3A4 inhibitors
  Unstandardized β-Coefficient (95% CI) for Ctrough: 2.39 (3.337–1.443)
[4]; Univariate Analysis, Days from starting therapy (days)
  Unstandardized β-Coefficient (95% CI) for Ctrough: 0.001 (0.007−0.005)
[4]; Univariate Analysis, Dose/kg daily (mg/kg)
  Unstandardized β-Coefficient (95% CI) for Ctrough: 0.815 (1.164–0.466)
[4]; Univariate Analysis, Gender (male vs. female)
  Unstandardized β-Coefficient (95% CI) for Ctrough: 0.099 (6.986−6.788)
[4]; Univariate Analysis, Total bilirubin (mg/dL)
  Unstandardized β-Coefficient (95% CI) for Ctrough: −0.346 (0.034−0.726)
[4]; Univariate Analysis, Weight (kg)
  Unstandardized β-Coefficient (95% CI) for Ctrough: −0.029 (0.006−0.064)
[4]; Univariate Analysis, γ-GT (IU/L)
  Unstandardized β-Coefficient (95% CI) for Ctrough: 0.003 (0.005–0.001)
[4]; associated with patient age
  reduction in Ctrough: 3.7%
[4]; cotreatment with mild/moderate CYP3A4 inhibitors
  increase in isavuconazole Ctrough: more than 2 fold
[5]
  dose up to which the pharmacokinetics are linear: up to 600 mg daily
  elimination half-life: 80 to 130 h
[5]; multiple-dose study, 32 healthy volunteers, IV and oral
  plasma drug accumulation ratio between start and end of therapy: 3.8–5.2
[5]; observed in SOT patients
  CL: 4.28 L/h
[5]; reported by previous analysis
  interindividual variability on CL: 43–63%
[5]; reported in clinical trials
  CL: 2.2 to 2.5 L/h
[6]
  plasma protein binding: > 98%
A. fumigatus [7]
  AUC24 h/MIC pharmacodynamic threshold of efficacy: > 33.4
A. fumigatus [8]
  clinical breakpoint: 1 mg/L
A. flavus
  clinical breakpoint: 1 mg/L
[9]; ROC analysis, mild adverse events
  cut-off value for toxicity (Ctrough): 5130 ng/mL
[9]
  Median isavuconazole concentration on days when side effects occurred: 6.65 mg/L
  Median isavuconazole concentration when side effects were not present: 4.09 mg/L
[9]; in vivo
  isavuconazole levels associated with hepatic veno-occlusive disease: > 10 mg/L
[9]; linear mixed model, 264 Ctrough samples from 19 patients
  linear increase of concentration for each day of treatment: 0.032 mg/L
